Some test systems named below: HCC-2998 colon; HL-60(TB) leukemia; OVCAR-4 ovarian; OVCAR-5 ovarian; SF-295 CNS; SK-OV-3 ovarian; SN12C renal; SNB-75 CNS; UO-31 renal; SK-MEL-2 melanoma.
What all share (test): growth of human tumour cells (NCI), 48 h

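These data come from cells grown in 96-well plates and exposed to compound for 48 hours at five concentrations. TGI denotes the concentration required for complete inhibition of growth.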

Turning to `Cc1ccc2c(c1C)CC1(Cc3c(C)ccc(C)c3C1=O)C2=O` (stereo unspecified), the TGI with HCC-2998 colon, in the assay with HL-60(TB) leukemia, in the assay with OVCAR-4 ovarian, in the assay with OVCAR-5 ovarian, in the assay with SF-295 CNS and in the assay on SK-OV-3 ovarian was above 100 µM in each case. Besides, the TGI in the assay with SN12C renal, with SNB-75 CNS and in the assay on UO-31 renal was above 100 µM in each case.

Turning to `Cn1c2c(c3ccccc31)CCN1C(=O)C34CCCC3CC21S4` (stereo unspecified), the TGI in the assay with HL-60(TB) leukemia, with OVCAR-4 ovarian, with OVCAR-5 ovarian, with SF-295 CNS, with SK-MEL-2 melanoma and with SK-OV-3 ovarian was above 100 µM throughout. The TGI with SN12C renal and in the assay with UO-31 renal was above 100 µM in each case.

Turning to `Clc1ccc(OCc2nnc(COc3ccc(OCc4nnc(COc5ccc(Cl)cc5Cl)o4)c(Cl)c3)o2)c(Cl)c1`, the TGI in the assay on HCC-2998 colon was 97.3 µM; in the assay with HL-60(TB) leukemia, 57.3 µM; in the assay with OVCAR-5 ovarian, above 100 µM; with SF-295 CNS, above 100 µM; in the assay with SK-MEL-2 melanoma it was above 100 µM; in the assay on SN12C renal it was above 100 µM. Further, the TGI in the assay on UO-31 renal was 36.7 µM.

Regarding `O=C1/C(=C/c2ccncc2)C(n2cccc2)c2c(Br)sc(Br)c21` (stereo unspecified), the TGI in the assay on HCC-2998 colon is 3.45 µM; with HL-60(TB) leukemia, 4.68 µM; with OVCAR-5 ovarian, 29.2 µM; in the assay on SF-295 CNS it was 26.1 µM; in the assay with SK-MEL-2 melanoma it was 6.56 µM; with SK-OV-3 ovarian it was 20.7 µM. In addition, the TGI is 16.4 µM in the assay on SN12C renal, 9.79 µM with SNB-75 CNS and 5.42 µM in the assay with UO-31 renal.

For `Cn1nc2c(c1N)Cc1c(nn(C)c1N)-c1ccccc1-2`, the TGI in the assay on HCC-2998 colon, with HL-60(TB) leukemia, in the assay on OVCAR-4 ovarian, with OVCAR-5 ovarian, with SF-295 CNS and in the assay with SK-MEL-2 melanoma was above 100 µM throughout. Also, the TGI in the assay on SK-OV-3 ovarian, in the assay with SN12C renal and in the assay with UO-31 renal was above 100 µM throughout.

On to `O=C1NC(=S)NC(=O)C1C(c1ccc(Cl)cc1)C1C(=O)NC(=S)NC1=O`, for which the TGI in the assay on HL-60(TB) leukemia, in the assay with OVCAR-4 ovarian, in the assay with OVCAR-5 ovarian, in the assay with SF-295 CNS, in the assay on SK-MEL-2 melanoma and with SN12C renal was above 100 µM throughout. The compound further registered a TGI in the assay with UO-31 renal above 100 µM.

On to `COC(=O)C1=C(C(=O)OC)SC(=C2SC3=C(SC(=C4SCCS4)S3)S2)S1`, for which the TGI with HL-60(TB) leukemia, in the assay with OVCAR-5 ovarian, in the assay with SF-295 CNS, with SK-MEL-2 melanoma, in the assay with SK-OV-3 ovarian and with SN12C renal was above 100 µM in each case. In addition, the values for the TGI with SNB-75 CNS and in the assay with UO-31 renal were 6.86 µM and above 100 µM, respectively.

Consider `CC(C)(C)c1cc(/C=C2/NC(=O)NC2=O)cc(C(C)(C)C)c1O`, for which the TGI in the assay on HL-60(TB) leukemia turned out to be 25.9 µM; with OVCAR-4 ovarian it was 26 µM; with OVCAR-5 ovarian, 30.8 µM; in the assay with SF-295 CNS it was 29.1 µM; in the assay on SK-MEL-2 melanoma, 27.2 µM; in the assay on SK-OV-3 ovarian, 32 µM. Further, the TGI in the assay with SN12C renal came to 31.4 µM; in the assay on SNB-75 CNS, 25.2 µM.

As for `COc1cccc(N2C(=O)CS(=O)(=O)C2c2cccc(Oc3ccccc3)c2)c1` (stereo unspecified), the TGI is above 100 µM with HL-60(TB) leukemia; above 100 µM in the assay on OVCAR-4 ovarian; above 100 µM with OVCAR-5 ovarian; above 100 µM in the assay with SF-295 CNS; 38.8 µM in the assay on SK-MEL-2 melanoma; above 100 µM in the assay on SK-OV-3 ovarian. Also, the TGI was 38.2 µM in the assay on SN12C renal, 84.5 µM in the assay on SNB-75 CNS and above 100 µM in the assay with UO-31 renal.

For `CCCO/N=[N+](\[O-])N(CC)CC`, the TGI in the assay with HCC-2998 colon, in the assay on HL-60(TB) leukemia, in the assay with OVCAR-5 ovarian, in the assay on SF-295 CNS, with SK-MEL-2 melanoma and in the assay with SK-OV-3 ovarian was above 100 µM throughout. Also, the TGI in the assay with SN12C renal and in the assay on UO-31 renal was above 100 µM throughout.

Take `Cc1cnc2[nH]c(-c3cccc(F)c3)cc(=O)c2c1`: the TGI in the assay on HL-60(TB) leukemia was 0.0628 µM; in the assay on OVCAR-4 ovarian, above 100 µM; in the assay on OVCAR-5 ovarian, above 100 µM; with SK-OV-3 ovarian it was above 100 µM; in the assay on SN12C renal it was above 100 µM; with SNB-75 CNS it was above 100 µM. In the assay on UO-31 renal, this compound showed a TGI above 100 µM.

Turning to `CC(=O)N(C)c1ccc(Nc2ccnc3ccc4nn(C)nc4c23)cc1`, the TGI was 38.8 µM with HL-60(TB) leukemia; above 100 µM with OVCAR-4 ovarian; 94.1 µM with OVCAR-5 ovarian; 59 µM in the assay on SF-295 CNS; 45.7 µM in the assay on SK-MEL-2 melanoma; 47.6 µM in the assay on SK-OV-3 ovarian. The results for the TGI in the assay with SN12C renal, with SNB-75 CNS and in the assay on UO-31 renal were above 100 µM, above 100 µM and 29.2 µM, respectively.

In the case of `CCOC(=O)Cn1nnc2cc(Nc3c(C)[n+]([O-])c4cc(F)c(OCC)cc4[n+]3[O-])ccc21`, the TGI in the assay with HL-60(TB) leukemia, in the assay on OVCAR-4 ovarian, in the assay with OVCAR-5 ovarian, with SF-295 CNS, with SK-MEL-2 melanoma and in the assay with SK-OV-3 ovarian was above 100 µM each time. Also, the TGI in the assay with UO-31 renal is above 100 µM.

On to `Nc1c(S(N)(=O)=O)cc(S(N)(=O)=O)cc1S(N)(=O)=O`, for which the TGI in the assay on HCC-2998 colon, in the assay with OVCAR-4 ovarian, in the assay on OVCAR-5 ovarian, in the assay on SF-295 CNS, in the assay with SK-OV-3 ovarian and in the assay with SN12C renal was above 100 µM throughout. The TGI with SNB-75 CNS and in the assay with UO-31 renal was above 100 µM throughout.

Take `CNC(=S)NNc1ncnc2c1c(-c1ccc(Cl)cc1)cn2-c1ccc(C)cc1`: the TGI with HL-60(TB) leukemia is above 100 µM; with OVCAR-4 ovarian, 37.6 µM; in the assay with OVCAR-5 ovarian it was 29 µM; with SF-295 CNS, 20 µM; in the assay on SK-MEL-2 melanoma, 27.7 µM; in the assay with SK-OV-3 ovarian, 28.9 µM. Besides, the TGI came to 24.3 µM in the assay on SN12C renal and 23.4 µM with UO-31 renal.
